Type: physicochemical
Conditions: Tris-hydrochloric acid buffer (pH 7.5) 50 mmol/L, magnesium chloride 5 mmol/L, evaluation compound 1 µmol/L, 37°C, 60 minutes, average of duplicate
Description: The conversion from the evaluation compounds to brexpiprazole in a buffer (i.e., the stability of the evaluation compounds) was evaluated.
The Example 1 compound was dissolved in acetonitrile/water (1:1, v/v) to 10 mmol/L and further diluted with acetonitrile/water (1:1, v/v) to 100 µmol/L for use.
The other Example compounds and the Reference Example 5 compound to Reference Example 7 compound were each dissolved in DMSO to 10 mmol/L and further diluted with acetonitrile to 100 µmol/L for use, except for the following compounds.
The compounds of Examples 52, 95, 96, 117, and 130 (EX 52, EX 95, EX 96, EX 117, and EX 130) were dissolved in acetonitrile/water (8:2, v/v) to 10 mmol/L and further diluted with acetonitrile to 100 µmol/L for use.
The compound of Example 97 (EX 97) was dissolved in acetonitrile/water (8:2, v/v) to 10 mmol/L and further diluted with acetonitrile/water (8:2, v/v) to 100 µmol/L for use.
The compounds of Examples 15 and 116 (EX 15 and EX 116) were dissolved in DMSO to 1 mmol/L and further diluted with acetonitrile to 100 µmol/L for use.
These evaluation compound solutions were prepared at the time of use.
The reaction was conducted by preparing each reaction solution such that the final concentration of each component was as follows. The test was conducted in duplicate.
For the compounds of Examples 1 to 8, 10 to 19, 26 to 27, 37, 50, 87 to 89, 91, 116, 121, 123, 150, and 151 (EX 1 to EX 8, EX 10 to EX 19, EX 26 to EX 27, EX 37, EX 50, EX 87 to EX 89, EX 91, EX 116, EX 121, EX 123, EX 150, and EX 151), and the compounds of Reference Examples 5 to 7 (REX 5 to REX 7), the reaction solution without the evaluation compound (198 µl) was pre-incubated at 37°C for 3 minutes, and then each of the evaluation compound solutions (2 µl) was added and stirred; thereafter, the reaction was started at 37°C. At 0 minutes or 60 minutes after the start of the reaction, the reaction was stopped by adding and stirring a reaction stop solution (1000 µl) composed of acetonitrile/isopropanol (4:1, v/v) containing internal standard substances. However, the 0-minute reaction sample (198 µl) was prepared by adding the evaluation compound (2 µl) after adding the reaction stop solution (1000 µl). The samples after stopping the reaction were used as the measurement samples. Calibration curve samples with the same composition were prepared (final concentrations of the evaluation compounds and brexpiprazole: 0.01, 0.1, and 1 µmol/L, with the proviso that for the evaluation compounds only, the 0-minute reaction samples were also used as calibration curve samples for 1 µmol/L).
For the compounds of Examples 24 to 25, 28 to 29, 32 to 36, 40 to 49, 51 to 60, 62 to 64, 66 to 77, 80 to 86, 90, 92 to 111, 113, 115, 117 to 120, 122, 124 to 130, 132 to 147, and 152 to 160 (EX 24 to EX 25, EX 28 to EX 29, EX 32 to EX 36, EX 40 to EX 49, EX 51 to EX 60, EX 62 to EX 64, EX 66 to EX 77, EX 80 to EX 86, EX 90, EX 92 to EX 111, EX 113, EX 115, EX 117 to EX 120, EX 122, EX 124 to EX 130, EX 132 to EX 147, and EX 152 to EX 160), the reaction solution without the evaluation compound (148.5 µl) was pre-incubated at 37°C for 3 minutes, and then each of the evaluation compound solutions (1.5 µl) was added and stirred; thereafter, the reaction was started at 37°C. At 0 minutes or 60 minutes after the start of the reaction, the reaction was stopped by adding and stirring a reaction stop solution (600 µl) composed of acetonitrile/isopropanol (4:1, v/v) containing internal standard substances. However, the 0-minute reaction sample (148.5 µl) was prepared by adding the evaluation compound (1.5 µl) after adding the reaction stop solution (600 µl). The samples after stopping the reaction were used as the measurement samples. […]

Compound	Concentration of brexpiprazole formed	Concentration of evaluation compound decreased
CCOC(=O)C1CCN(CCOP(=O)([O-])OC[N+]2(CCCCOc3ccc4ccc(=O)[nH]c4c3)CCN(c3cccc4sccc34)CC2)CC1 [EX 147]	0 nM	70 nM
CCOCCOCCOCCOC(=O)OCOP(=O)([O-])OC[N+]1(CCCCOc2ccc3ccc(=O)[nH]c3c2)CCN(c2cccc3sccc23)CC1 [EX 136]	0 nM	0 nM
COc1ccc(COC(=O)CC(C)(C)CC(=O)OCOP(=O)([O-])OC[N+]2(CCCCOc3ccc4ccc(=O)[nH]c4c3)CCN(c3cccc4sccc34)CC2)cc1 [EX 72]	0 nM	150 nM
CC(C)(C)OC(=O)CNP(=O)([O-])OC[N+]1(CCCCOc2ccc3ccc(=O)[nH]c3c2)CCN(c2cccc3sccc23)CC1 [EX 155]	0 nM	160 nM
CC(C)COC(=O)[C@@H](C)OP(=O)([O-])OC[N+]1(CCCCOc2ccc3ccc(=O)[nH]c3c2)CCN(c2cccc3sccc23)CC1 [EX 107]	0 nM	70 nM
CCOC(=O)[C@H](C)NP(=O)([O-])OC[N+]1(CCCCOc2ccc3ccc(=O)[nH]c3c2)CCN(c2cccc3sccc23)CC1 [EX 156]	0 nM	170 nM
CCCCCC(=O)OC[N+]1(CCCCOc2ccc3ccc(=O)[nH]c3c2)CCN(c2cccc3sccc23)CC1.[I-] [REX 6, 4-(Benzo[b]thiophen-4-yl)-1-((hexanoyloxy)methyl)-1-(4-((2-oxo-1,2-dihydroquinolin-7-yl)oxy)butyl)piperazin-1-ium iodide, reference compound]	210 nM	220 nM
COCCOC(=O)CCCCCCCCCCC(=O)OCOP(=O)([O-])OC[N+]1(CCCCOc2ccc3ccc(=O)[nH]c3c2)CCN(c2cccc3sccc23)CC1 [EX 77]	0 nM	110 nM
CCC(CC)COC(=O)[C@@H](C)OP(=O)([O-])OC[N+]1(CCCCOc2ccc3ccc(=O)[nH]c3c2)CCN(c2cccc3sccc23)CC1 [EX 108]	0 nM	80 nM
CC(C)OC(=O)OCOP(=O)([O-])OC[N+]1(CCCCOc2ccc3ccc(=O)[nH]c3c2)CCN(c2cccc3sccc23)CC1 [EX 130]	0 nM	-20 nM
C[C@H](NP(=O)([O-])OC[N+]1(CCCCOc2ccc3ccc(=O)[nH]c3c2)CCN(c2cccc3sccc23)CC1)C(N)=O [EX 158]	0 nM	70 nM
CN1CCN(CCOP(=O)([O-])OC[N+]2(CCCCOc3ccc4ccc(=O)[nH]c4c3)CCN(c3cccc4sccc34)CC2)CC1 [EX 117]	0 nM	50 nM
CC(C)C(=O)OCOP(=O)([O-])OC[N+]1(CCCCOc2ccc3ccc(=O)[nH]c3c2)CCN(c2cccc3sccc23)CC1 [EX 24]	0 nM	-110 nM
CC(C)(C)OC(=O)CCCC(=O)OCOP(=O)([O-])OC[N+]1(CCCCOc2ccc3ccc(=O)[nH]c3c2)CCN(c2cccc3sccc23)CC1 [EX 69]	0 nM	-10 nM
CCCC(C)(C)C(=O)OCOP(=O)([O-])OC[N+]1(CCCCOc2ccc3ccc(=O)[nH]c3c2)CCN(c2cccc3sccc23)CC1 [EX 123]	0 nM	-110 nM
CCCCOCCOP(=O)([O-])OC[N+]1(CCCCOc2ccc3ccc(=O)[nH]c3c2)CCN(c2cccc3sccc23)CC1 [EX 96]	0 nM	30 nM

Now from value to compound:

Concentration of brexpiprazole formed	Concentration of evaluation compound decreased	Compound
0 nM	40 nM	O=C(OCCCCCCOP(=O)([O-])OC[N+]1(CCCCOc2ccc3ccc(=O)[nH]c3c2)CCN(c2cccc3sccc23)CC1)c1ccc([N+](=O)[O-])cc1 [EX 85]
0 nM	40 nM	COc1ccc(C(=O)OCCCCCCOP(=O)([O-])OC[N+]2(CCCCOc3ccc4ccc(=O)[nH]c4c3)CCN(c3cccc4sccc34)CC2)cc1 [EX 58]
0 nM	20 nM	COCCOP(=O)([O-])OC[N+]1(CCCCOc2ccc3ccc(=O)[nH]c3c2)CCN(c2cccc3sccc23)CC1 [EX 12, (4-(benzo[b]thiophen-4-yl)-1-(4-((2-oxo-1,2-dihydroquinolin-7-yl)oxy)butyl)piperazin-1-ium-1-yl)methyl (2-methoxyethyl) phosphate]
0 nM	30 nM	O=C(O)CCCCCOC(=O)OCOP(=O)([O-])OC[N+]1(CCCCOc2ccc3ccc(=O)[nH]c3c2)CCN(c2cccc3sccc23)CC1 [EX 145]
0 nM	30 nM	O=c1ccc2ccc(OCCCC[N+]3(COP(=O)([O-])OCCCCCCCCO)CCN(c4cccc5sccc45)CC3)cc2[nH]1 [EX 11, (4-(benzo[b]thiophen-4-yl)-1-(4-((2-oxo-1,2-dihydroquinolin-7-yl)oxy)butyl)piperazin-1-ium-1-yl)methyl (8-hydroxyoctyl) phosphate]
0 nM	70 nM	CC(C)(C)C(=O)OCCCCCCOP(=O)([O-])OC[N+]1(CCCCOc2ccc3ccc(=O)[nH]c3c2)CCN(c2cccc3sccc23)CC1 [EX 102]
0 nM	180 nM	O=c1ccc2ccc(OCCCC[N+]3(COP(=O)([O-])OCCCCBr)CCN(c4cccc5sccc45)CC3)cc2[nH]1 [EX 62]
0 nM	-70 nM	CCCCOP(=O)([O-])OC[N+]1(CCCCOc2ccc3ccc(=O)[nH]c3c2)CCN(c2cccc3sccc23)CC1 [EX 89]
0 nM	30 nM	O=c1ccc2ccc(OCCCC[N+]3(COP(=O)([O-])OCCCCCCCBr)CCN(c4cccc5sccc45)CC3)cc2[nH]1 [EX 64]
0 nM	120 nM	CCOC(=O)CCCCCOC(=O)OCOP(=O)([O-])OC[N+]1(CCCCOc2ccc3ccc(=O)[nH]c3c2)CCN(c2cccc3sccc23)CC1 [EX 144]
0 nM	-20 nM	O=c1ccc2ccc(OCCCC[N+]3(COP(=O)([O-])OCCCCO)CCN(c4cccc5sccc45)CC3)cc2[nH]1 [EX 10, (4-(benzo[b]thiophen-4-yl)-1-(4-((2-oxo-1,2-dihydroquinolin-7-yl)oxy)butyl)piperazin-1-ium-1-yl)methyl (4-hydroxybutyl) phosphate]

Same assay, conditions: Tris-hydrochloric acid buffer (pH 7.5), 37°C, 60 minutes

Compound	stability in the buffer / conversion to brexpiprazole (in words)
CCCCCC(=O)OC[N+]1(CCCCOc2ccc3ccc(=O)[nH]c3c2)CCN(c2cccc3sccc23)CC1.[I-] [REX 6, 4-(Benzo[b]thiophen-4-yl)-1-((hexanoyloxy)methyl)-1-(4-((2-oxo-1,2-dihydroquinolin-7-yl)oxy)butyl)piperazin-1-ium iodide, reference compound]	clearly degraded to brexpiprazole

Reference: patent EP4707284A1, “HETEROCYCLIC COMPOUND AND USE THEREOF” (Otsuka Pharmaceutical Co., Ltd., priority 2023, dated 2024)
